Measured values published in patent US5310757A, “3,3,5-trimethylcyclohexyl 2-methylpropionate derivatives, their method of preparation and therapeutic compositions in which they are present” (Panmedica, priority 1989, dated 1994).

Columns and labels:
[1] = test system: hyperlipidaemia caused by TRITON 1339; test: test for the hyperlipidaemia caused by TRITON 1339; assay type: in vivo; conditions: rats, Triton test after oral administration for six days, 0.5 millimol per kilogram; for HDL cholesterol: Control 0.7 ± 0.1, Triton 0.8 ± 0.1; for Triglycerides: Control 1 ± 0.3, Triton 10 ± 7; for Total cholesterol: Control 2 ± 0.15, Triton 9 ± 3; for Total lipids: Control 3.5 ± 0.4, Triton 20 ± 10
Protocol: The Table below summarizes the results of the pharmacological studies carried out especially by means of the test for the hyperlipidaemia caused by TRITON 1339. The experimental protocol was that published by J. C. […] et al. (Gaz. Med. France, 3rd inter. coll. 1982, Dijon, 18-22). The tests are performed on groups of 7 rats weighing from 280 to 290 g. The Triton test is carried out after oral administration for six days at a rate of 0.5 millimol per kilogram of body weight. The following lipid parameters are measured: total cholesterol, triglycerides, total lipids and HDL cholesterol.

[2] = target: T1, 3-hydroxy-3-methylglutaryl-CoA reductase (Rattus norvegicus, UniProt P51639); test: inhibition of 3-hydroxy-3-methylglutaryl-CoA reductase activity (method of Kuroda et al.); assay type: biochemical; conditions: concentration for 50% inhibition of 3-hydroxy-3-methylglutaryl-CoA reductase activity
T1 construct: from tissue
T1 sequence (P51639 1-887): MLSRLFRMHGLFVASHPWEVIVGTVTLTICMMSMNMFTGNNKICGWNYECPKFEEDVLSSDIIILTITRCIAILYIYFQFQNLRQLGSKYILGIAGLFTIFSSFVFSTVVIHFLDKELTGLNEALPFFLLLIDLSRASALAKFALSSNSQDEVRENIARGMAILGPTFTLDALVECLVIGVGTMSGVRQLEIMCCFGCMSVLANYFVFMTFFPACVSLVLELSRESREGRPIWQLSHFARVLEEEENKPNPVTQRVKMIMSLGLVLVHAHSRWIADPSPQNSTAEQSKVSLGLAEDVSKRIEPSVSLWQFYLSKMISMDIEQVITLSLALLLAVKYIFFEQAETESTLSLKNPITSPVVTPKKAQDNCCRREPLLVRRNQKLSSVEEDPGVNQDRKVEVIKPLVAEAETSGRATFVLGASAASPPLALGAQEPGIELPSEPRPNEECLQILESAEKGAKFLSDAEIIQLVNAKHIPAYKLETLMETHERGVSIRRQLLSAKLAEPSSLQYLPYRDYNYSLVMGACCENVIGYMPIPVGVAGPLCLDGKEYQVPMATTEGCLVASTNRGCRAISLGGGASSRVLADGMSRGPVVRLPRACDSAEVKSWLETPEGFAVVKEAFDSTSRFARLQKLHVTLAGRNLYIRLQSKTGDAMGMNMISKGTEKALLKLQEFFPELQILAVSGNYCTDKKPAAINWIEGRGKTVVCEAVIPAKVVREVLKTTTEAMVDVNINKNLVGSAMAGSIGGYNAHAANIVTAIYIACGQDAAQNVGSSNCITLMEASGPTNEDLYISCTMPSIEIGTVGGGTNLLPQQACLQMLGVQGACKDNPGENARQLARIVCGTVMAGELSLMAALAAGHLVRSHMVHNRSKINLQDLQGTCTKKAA
Protocol: The biosynthesis of cholesterol in an isolated enzymatic system or in a cell culture from organs removed from experimental animals is inhibited by limiting the activity of the enzyme 3-hydroxy-3-methylglutaryl-CoA reductase.
The inhibitory activity of the products according to the present invention was determined by the method of Kuroda et al. (Biochemica et Biophysica Acta, vol. 486, pp. 70-81 (1977)), which is a modification of the method of Shapiro et al. (Analytical Biochemistry, vol. 31, pp. 383-390 (1969)). The results are summarized in Table II, where IC50 is the concentration of product in the experimental medium which is necessary to achieve a 50% inhibition of the 3-hydroxy-3-methylglutaryl-CoA reductase activity, expressed in nanomol.

HMG-CoA red. = HMG-CoA red. activity "ex vivo" in liver microsomes after chronic intraperitoneal administration to rats; set-up: Mevalonate formed: unit not given here; conditions: 50 mg/kg for 6 days; for Mevalonate formed: Control 17; for % inhibition: inhibition of HMG-CoA red. activity, Control 0
Protocol: The inhibitory activity of the products according to the present invention was determined by the method of Kuroda et al. (Biochemica et Biophysica Acta, vol. 486, pp. 70-81 (1977)), which is a modification of the method of Shapiro et al. (Analytical Biochemistry, vol. 31, pp. 383-390 (1969)). […] The doses administered were 50 mg/kg for 6 days; six rats were used in each series; they are sacrificed without anaesthesia and the liver microsomes are isolated for the assay, which is performed according to the above-mentioned protocol.

| IC50 [2] | Structure (SMILES) | HDL cholesterol [1] | Triglycerides [1] | Total cholesterol [1] | Total lipids [1] | Mevalonate formed (HMG-CoA red.) | % inhibition (HMG-CoA red.) |
| --- | --- | --- | --- | --- | --- | --- | --- |
| 30.1 nM | Cc1ccc(C)c(OCCCC(C)(C)C(=O)O[C@H]2C[C@@H](C)CC(C)(C)C2)c1 (relative stereo) [Example 5, (CIS) 3,3,5-TRIMETHYLCYCLOHEXYL 2-(3-(2,5-DIMETHYLPHENOXY)PROPYL)-2-METHYLPROPIONATE] | 1.0 ± 0.3 mmol/L | 2.0 ± 0.3 mmol/L | 5.0 ± 0.8 mmol/L | 3.0 ± 0.4 g/L | 6.71 | 60% |
| 37.2 nM | C[C@@H]1C[C@H](OC(=O)C(C)(C)Oc2ccc(C(=O)c3ccc(Cl)cc3)cc2)CC(C)(C)C1 (relative stereo) [Example 2, (CIS) 3,3,5-TRIMETHYLCYCLOHEXYL 2-(4-(4-CHLOROBENZOYL)PHENOXY)-2-METHYLPROPIONATE] | 2.1 ± 0.5 mmol/L | 0.5 ± 0.15 mmol/L | 3.0 ± 0.4 mmol/L | 3.6 ± 0.2 g/L | 7.3 | 57% |
| 42.5 nM | C[C@H]1C[C@H](OC(=O)C(C)(C)Oc2ccc(-c3ccccc3)cc2)CC(C)(C)C1 (relative stereo) [Example 7, (TRANS) 3,3,5-TRIMETHYLCYCLOHEXYL 2-(4-PHENYLPHENOXY)-2-METHYLPROPIONATE] | 1.5 ± 0.4 mmol/L | 1.1 ± 0.5 mmol/L | 2.2 ± 0.4 mmol/L | 3.0 ± 0.5 g/L |  |  |
